Data on 2 compounds can be found in patent US20150087723A1, “MICROBIAL COMPOSITION” (Rohm and Haas Company, priority 2011, published 2015).

“And” between values parts separate entries of the source, which are not always exact repeats. Equal values may be shown once. Bounds are passed on as bounds.

Test [1] concerns Staphylococcus aureus (10788 strain). Kind of test: Antimicrobial efficacy in water, 15 seconds contact, mean bacterial survival NMBS by colony count. The class given is cell-based. The note with it: for NMBS: alone, S. Aureus, 15 seconds contact; for MBC (minimum biocidal concentration): single component, against S. Aureus, in water. How it is done:
Selected materials were also tested against a representative Gram positive Staphylococcus aureus.
This suspension was separated into equal volumes and centrifuged at 4000 rpm for 15 minutes. Following centrifugation the pellet was re-suspended in saline to give a final concentration of 0.35 OD620 equivalent to about 10^8 cells per millilitre for this particular organism. Here, OD620 indicates the absorbance of a sample in a cuvette of 1.0 cm path length at a wavelength of 620 nm. This bacterial stock was used for assaying against antimicrobial actives (in triplicate).
The following assay describes the testing of 8 materials using 6 dilutions across half of a 96-well micro litre plate (MTP). Using this approach it is possible to assay 16 actives (without replicates) with, one full dilution plate, replicating this set up in two halves of the plate columns, 1-6 and 7-12.
IM solutions of the test actives were prepared in dimethylsulphoxide (DMSO).
This MTP was labeled as the “Screening plate”.
In another MTP, labeled as the “Dilution plate”, 270 μl of D/E neutralising solution from DIFCO Composition was added to column 1. The composition of the neutralising solution was as follows: pancreatic digest of casein, 5.0 g/L; Yeast Extract, 2.5 g/L; Dextrose, 10 g/L, sodium thioglycollate, 1.0 g/L, sodium thiosulphate, 6.0 g/L; sodium bisulphite, 2.5 g/L; Polysorbate 80, 5.0 g/L; lecithin 7.0 g/L; bromocresol purple, 0.02 g/L with a pH is the range 7.6±0.2.
270 μl of tryptone diluent solution was added to all the remaining wells of the Dilution MTP (columns 2-6).
Bacterial stock (30 μl) was then added to the prepared 270 μl of the solution of actives in the Screening Plate and mixed, using a multichannel pipette with 8 tips to aspirate and dispense the same volume of bacterial stock in parallel to 8 wells in rows A-H. After a contact time of 15 seconds, the mixtures were quenched by transferring 30 μl volumes of the mixtures into the 270 μl D/E neutralising solution in the prepared dilution plate, using aspiration to mix. After exactly 5 minutes in the D/E neutralising solution, 30 μl volumes were transferred from column 1 to column 2 of the Dilution MTP and mixed, before transferring further 30 μl volumes from column 2 into column 3. This process was repeated serially diluting the bacteria across the plate to column 6.
30 μl volumes from each well in the Dilution MTP were transferred onto pre-labeled segment of Tryptone Soya Agar (TSA) plates starting from the lowest bacterial concentration (highest dilution, column 6) to the highest bacterial concentration (column 1). The TSA plates were allowed to stand for ca. 2 hours so that the 30 μl inocula spots could dry and the plates were then inverted and incubated overnight at 37° C. before enumerating the bacterial colonies at the labeled dilutions to determine the effects of the actives on bacterial growth.
Mean bacterial survival numbers NMBS (expressed in Log CFU/ml) are obtained by first determining the segment of the TSA plate where the number of bacterial colonies is countable. From the colony number in this segment, NMBS is calculated by the formula: […]
Here, Ncol is the colony count, and DF is the dilution factor taken from the MTP-well corresponding to the TSA plate segment (i.e. DF may range from 1 for the quench, to 6 for the highest dilution). The factor 100/3 is a conversion factor from the volume of the inocula spot to one millilitre.
Every assay test was performed in triplicate.
Thus, a value of NMBS of about 7 corresponds to a count of about 3 colonies from the fifth dilution well, i.e. with DF=5. Such a count of about 7 is generally observed when bacteria are exposed to non-biocidal materials. In case no surviving colonies are observed in any segment of the TSA plate, this is interpreted as complete kill and a value of NMBS=0 is reported.
S. aureus Bacterial stock was prepared as shown below and the antibacterial efficacy of the active was carried out as explained earlier for E. Coli.

Test [2] has as its system Escherichia coli (E. coli—ATCC #10536). In words: Synergy test: high resolution MBC microtiter plate assay, phosphate buffer containing 35% dipropylene glycol, 15 seconds contact. The class given is cell-based. The conditions noted are these: E. coli 10536; for SI (Synergy Index = Qa/QA + Qb/QB): at Qa and Qb, <1 synergy, 1 additivity, >1 antagonism. From the text:
One measure of synergy is -the industrially accepted method described by Kull, F. C.; Eisman, P. C.; Sylwestrowicz, H. D. and Mayer, R. L., in Applied Microbiology 9:538-541 (1961), using the ratio determined by the formula:
Qa/QA+Qb/QB=Synergy Index (“SI”)
wherein: QA=concentration of compound A (first component) in percent, acting alone, which produced an end point (MBC of Compound A). Qa =concentration of compound A in percent, in the mixture, which produced an end point. QB=concentration of compound B (second component) in percent, acting alone, which produced an end point (MBC of Compound B). Qb=concentration of compound B in percent, in the mixture, which produced an end point.
When the sum of Qa/QA and Qb/QB is greater than one, antagonism is indicated. […] The lower the SI, the greater is the synergy shown by that particular mixture. The minimum biocidal concentration (MBC) of a microbicide is the lowest concentration tested under a specific set of conditions that provides complete kill of the tested microorganisms.
Synergy tests were-conducted using standard microtiter plate assays with, phosphate buffer containing 35% dipropylene glycol (DPG). In this method, a wide range of combinations of chemicals was tested by conducting high resolution MBC assays of Component (A) in the presence of various concentrations of Component (B). High resolution MBCs were determined by adding varying amounts of microbicide to one column of a microtiter plate and doing subsequent ten-fold dilutions using an automated liquid handling system to obtain a series of closely spaced endpoints. The MBC plate was inoculated one column at a time with the test microorganism. An aliquot of the inoculated well was transferred at 15 seconds to a plate containing a neutralizing agent (D/E Neutralizing Broth), mixed and held for 5 minutes before being transferred to a growth plate containing trypticase soy broth (TSB). The TSB plate was incubated at 37° C. and read for the presence/absence of growth at 24 hours. The lowest level tested that provided complete kill (as evidenced by no growth in the microtitre plate) of the test organisms in 15 seconds is the minimum biocidal concentration (MBC).
The synergy of the combinations of the present invention was determined against a bacterium, Escherichia coli (E. coli—ATCC #10536), at a concentration of approximately 1×10^8 bacteria per mL. This microorganism is representative of natural contaminants in many consumer and industrial applications.

Regarding `CC(C)=CCC/C(C)=C/CO` [(E)-3,7-dimethylocta-2,6-dien-1-ol], the NMBS in test [1] (0.5% w/v) is reported as 7.43 log CFU/ml; in test [1] (1.0% w/v), 7.18 log CFU/ml. Moreover, in test [1], the “MBC (minimum biocidal concentration)” value is over 1.5 % w/v. Besides, the “SI (Synergy Index = Qa/QA + Qb/QB)” value in test [2] is recorded as 1.00. The “Qb: MBC of the second component (B) acting alone (QB)” value in test [2] (component alone (Qa = 0), complete kill in 15 seconds) is 0.3 weight % and 0.5 weight % and 0.6 weight %.
As to `CCCc1ccccc1O` [2-n-propylphenol], the NMBS in test [1] (0.05% w/v) is listed as 7.40 log CFU/ml; in test [1] (0.125% w/v), 7.06 log CFU/ml; in test [1] (0.5% w/v), 0 log CFU/ml; in test [1] ([…] w/v), 4.12 log CFU/ml. Besides, the “MBC (minimum biocidal concentration)” value in test [1] is recorded as 0.5 % w/v. In addition, in test [2], the “SI (Synergy Index = Qa/QA + Qb/QB)” value is given as 1.00.
